# pIC50: −log10 of the molar value.
# Biological target: T1, tau (microtubule-associated protein tau) (Homo sapiens, UniProt P10636)
# T1 construct: gene MAPT
# Experiment: ThT fluorescence assay of heparin-induced aggregation of recombinant tau; 3RMBD result confirmed by TEM and CD
# Type: biochemical
# From the text: ThT fluorescence assay of heparin-induced aggregation of recombinant tau; 3RMBD result confirmed by TEM and CD on tau (microtubule-associated protein tau) | PE859 inhibited the heparin-induced aggregation of both 3RMBD and full length tau in a concentration-dependent manner.
# T1 sequence (P10636 150-247 isoform P10636-3): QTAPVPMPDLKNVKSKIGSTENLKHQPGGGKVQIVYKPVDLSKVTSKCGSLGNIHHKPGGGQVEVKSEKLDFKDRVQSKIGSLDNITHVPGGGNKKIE
smiles,measurement,value
"COc1cc(OCc2ccccn2)ccc1/C=C/c1cc(/C=C/c2ccc3cc[nH]c3c2)[nH]n1 [PE859, 3-[(1E)-2-(1H-indol-6-yl)ethenyl]-5-[(1E)-2-[2-methoxy-4-(2-pyridylmethoxy)phenyl]ethenyl]-1H-pyrazole]",pIC50,6.09
